Peptide text beside a SMILES is read from it.
Legend:
Assay type in all cases: cell-based
[1] = system: Enterococcus faecalis ATTC 29212; conditions: 20 h, 37° C., TSB, 100% growth inhibition
Protocol: (§1) The microorganisms Escherichia coli ATTC 25922, Pseudomonas aeroginosa ATTC 27853, Staphylococcus aureus ATTC 25923 and Enterococcus faecalis ATTC 29212 and a Brazilian strain of P. aeroginosa were used for the anti-microbial assay
(§2) The microorganisms were cultured in stationary culture at 37° C. Bacteria were grown in Tryptic Soy Broth (TSB). The bioassays were performed by liquid growth inhibition assay lawn as described by Bulet et al (Bulet, P., Dimarcq, J. L., Hetru, C., Lagueux, M., Charlet, M., Hegy, G., VanDorsselaer, A. and Hoffmann, J. A. 1993. J. Biol. Chem. 268, 14893-14897). Molecules of Phylloseptin I were dissolved in sterile distilled and deionized water and diluted 8-fold in TSB (OXIOD England) broth. Various concentrations of PSI solution were tested, being the highest 128 μg/ml. The initial inoculum was approximately 1×10^5 colony forming units (CFU)/ml and limit of detection was 10^2 CFU/ml. The final volume was 250 μl (25 μl of the peptide test in water, 25 μl of the inoculum in TSB, and 200 μl of TSB broth). The minimal inhibitory concentration (MIC) was measured for turbidity (OD at 595 nm) 20 h after all microorganisms were grown in stationary culture at 37° C. The lowest concentration of the peptide in which no growth occurred was defined as the MIC.
(§3) The minimal inhibitory concentrations (MICs) of the isolated Phylloseptin I against several Gram-positive and Gram-negative bacteria were determined as described by Park et al (Park, C. B., Kim, M. S., and Kim, S. C. 1996. 218 Biochem. Biophys. Res. Commun. 408-413.). […] That is, the minimal inhibitory concentration was defined as the peptide concentration which produces 100% of microorganism growth inhibition after 20 h incubation in culture media.

[2] = system: Escherichia coli ATTC 25922; conditions: 20 h, 37° C., TSB, 100% growth inhibition
Protocol: as §1, §2, §3

[3] = system: Staphylococcus aureus ATTC 25923; conditions: Staphilococcus aureus ATTC; 20 h, 37° C., TSB; 100% growth inhibition
Protocol: as §1, §2, §3

human red blood cells = assay: Hemolysis assay
Protocol: Human erythrocytes (blood type O^−) from a healthy person were freshly prepared prior to each experiment. Hemolytic activity was assayed as described by Aboudy etal (Aboudy, Y., Mendelson, E., Shalit, I., Bessalle, R., Fridikin, M. 1994. Int. J. Peptide Protein Res. 43, 573-582.) with minor modifications. Three milliliters of freshly prepared erythrocytes (for methodology see Gibson, B. W., Tang, D., Mandrell, R., Kelly, M. and Spindel, E. R. 1991. J. Biol. Chem. 266, 23103-23111.21) was washed with isotonic phosphate-buffered saline (PBS), pH 7.4, until the color of the supernatant turned clear. The washed erythrocytes were then diluted to a final volume of 20 ml in the same buffer. Aliquots of cell suspentions (190 μl) containing samples (10 μl) were serially diluted in PBS, incubated at 37° C. for 30 min and then centrifuged at 4000×g for 5 min; 100 μl of supernatant was taken, diluted to 1.0 ml with PBS, and monitored at 567 nm. The relative optical density, as compared with that of the cell suspension treated with 0.2% Triton X-100, was defined as % hemolysis.
The hemolytic activity of Phylloseptin I and II was tested at different concentrations.

[4] = system: Pseudomonas aeruginosa wt; conditions: Pseudomonas aeruginosa wt (Brazilian strain); 20 h, 37° C., TSB; 100% growth inhibition
Protocol: as §1, §2, §3

[5] = system: Pseudomonas aeroginosa ATTC 27853; conditions: Pseudomonas aeruginosa ATTC; 20 h, 37° C., TSB; 100% growth inhibition
Protocol: as §1, §2, §3

Molecule: CC1(C)S[C@@H]2[C@H](NC(=O)[C@H](N)c3ccccc3)C(=O)N2[C@H]1C(=O)O [Amplicilyn]
- Minimal Inhibitory concentration [1]: 128 µg/mL
- Minimal Inhibitory concentration [2]: 64 µg/mL

Molecule: O=C(N[C@H](CO)[C@H](O)c1ccc([N+](=O)[O-])cc1)C(Cl)Cl [Chloranfenicol]
- Minimal Inhibitory concentration [3]: 32 µg/mL
- Minimal Inhibitory concentration [1]: 32 µg/mL
- Minimal Inhibitory concentration [2]: 32 µg/mL

Molecule: CC[C@H](C)[C@H](NC(=O)[C@H](C)NC(=O)[C@H](CO)NC(=O)[C@@H](NC(=O)[C@H](C)NC(=O)[C@H](CC(N)=O)NC(=O)[C@@H](NC(=O)[C@H](C)NC(=O)[C@H](Cc1c[nH]cn1)NC(=O)[C@@H]1CCCN1C(=O)[C@@H](NC(=O)[C@H](CC(C)C)NC(=O)[C@H](CO)NC(=O)[C@H](CC(C)C)NC(=O)[C@@H](N)Cc1ccccc1)[C@@H](C)CC)[C@@H](C)CC)C(C)C)C(=O)N[C@@H](C)C(=O)N[C@@H](CCCCN)C(=O)N[C@@H](Cc1c[nH]cn1)C(=O)N[C@@H](CC(N)=O)C(=O)O [PS I, Phe Leu Ser Leu Ile Pro His Ala Ile Asn Ala Val Ser Ala Ile Ala Lys His Asn] (H-FLSLIPHAINAVSAIAKHN-OH)
- % Hemolysis of human red blood cells (human red blood cells; 1 μg/mL (0.496 μM), 37° C., 30 min, relative to 0.2% Triton X-100): 0.00%
- % Hemolysis of human red blood cells (human red blood cells; 2 μg/mL (0.990 μM), 37° C., 30 min, relative to 0.2% Triton X-100): 0.00%
- % Hemolysis of human red blood cells (human red blood cells; 4 μg/mL (1.980 μM), 37° C., 30 min, relative to 0.2% Triton X-100): 0.00%
- % Hemolysis of human red blood cells (human red blood cells; 8 μg/mL (3.968 μM), 37° C., 30 min, relative to 0.2% Triton X-100): 0.30%
- % Hemolysis of human red blood cells (human red blood cells; 16 μg/mL (7.937 μM), 37° C., 30 min, relative to 0.2% Triton X-100): 0.57%
- % Hemolysis of human red blood cells (human red blood cells; 32 μg/mL (15.873 μM), 37° C., 30 min, relative to 0.2% Triton X-100): 0.60%
- % Hemolysis of human red blood cells (human red blood cells; 64 μg/mL (31.746 μM), 37° C., 30 min, relative to 0.2% Triton X-100): 0.98%
- % Hemolysis of human red blood cells (human red blood cells; 128 μg/mL (63.492 μM), 37° C., 30 min, relative to 0.2% Triton X-100): 1.98%
- Minimal Inhibitory concentration [3]: 16 µg/mL
- Minimal Inhibitory concentration [4]: 6 µg/mL
- Minimal Inhibitory concentration [1]: 8 µg/mL
- Minimal Inhibitory concentration [5]: 8 µg/mL
- Minimal Inhibitory concentration [2]: 16 µg/mL

Molecule: CC[C@H](C)[C@H](NC(=O)[C@H](C)NC(=O)[C@H](Cc1c[nH]cn1)NC(=O)[C@@H]1CCCN1C(=O)[C@@H](NC(=O)[C@H](CC(C)C)NC(=O)[C@H](CO)NC(=O)[C@H](CC(C)C)NC(=O)[C@@H](N)Cc1ccccc1)[C@@H](C)CC)C(=O)N[C@@H](CC(N)=O)C(=O)N[C@@H](C)C(=O)N[C@H](C(=O)N[C@@H](CO)C(=O)N[C@H](C(=O)N[C@@H](CC(C)C)C(=O)N[C@H](C(=O)N[C@@H](Cc1c[nH]cn1)C(=O)N[C@@H](Cc1c[nH]cn1)C(=O)N[C@@H](Cc1ccccc1)C(=O)O)C(C)C)[C@@H](C)O)C(C)C [PS II, Phe Leu Ser Leu Ile Pro His Ala Ile Asn Ala Val Ser Thr Leu Val His His Phe] (H-FLSLIPHAINAVSTLVHHF-OH)
- % Hemolysis of human red blood cells (human red blood cells; red cells of human, 1 μg/mL): 0.00%
- % Hemolysis of human red blood cells (human red blood cells; red cells of human, 2 μg/mL): 0.00%
- % Hemolysis of human red blood cells (human red blood cells; red cells of human, 4 μg/mL): 0.10%
- % Hemolysis of human red blood cells (human red blood cells; red cells of human, 8 μg/mL): 0.28%
- % Hemolysis of human red blood cells (human red blood cells; red cells of human, 16 μg/mL): 0.70%
- % Hemolysis of human red blood cells (human red blood cells; red cells of human, 32 μg/mL): 0.80%
- % Hemolysis of human red blood cells (human red blood cells; red cells of human, 64 μg/mL): 1.05%
- % Hemolysis of human red blood cells (human red blood cells; red cells of human, 128 μg/mL): 2.05%

Molecule: Gentamicyn
- Minimal Inhibitory concentration [4]: 64 µg/mL
- Minimal Inhibitory concentration [5]: 64 µg/mL
- Minimal Inhibitory concentration [2]: 64 µg/mL

Molecule: Polimixyn B
- Minimal Inhibitory concentration [4]: 16 µg/mL
- Minimal Inhibitory concentration [5]: 16 µg/mL
- Minimal Inhibitory concentration [2]: 64 µg/mL
